In ChEMBL document CHEMBL3351927, “Pyrrole alkaloids from the fruits of Morus alba” (Bioorg Med Chem Lett, 2014) one finds inhibition data, which are given here for 2 molecules.

A word on the inhibition: it is the change of the read-out against control, counted positive when it falls.

The test addresses T1, Pancreatic triacylglycerol lipase (Sus scrofa) (UniProt P00591).
T1 sequence (whole entry): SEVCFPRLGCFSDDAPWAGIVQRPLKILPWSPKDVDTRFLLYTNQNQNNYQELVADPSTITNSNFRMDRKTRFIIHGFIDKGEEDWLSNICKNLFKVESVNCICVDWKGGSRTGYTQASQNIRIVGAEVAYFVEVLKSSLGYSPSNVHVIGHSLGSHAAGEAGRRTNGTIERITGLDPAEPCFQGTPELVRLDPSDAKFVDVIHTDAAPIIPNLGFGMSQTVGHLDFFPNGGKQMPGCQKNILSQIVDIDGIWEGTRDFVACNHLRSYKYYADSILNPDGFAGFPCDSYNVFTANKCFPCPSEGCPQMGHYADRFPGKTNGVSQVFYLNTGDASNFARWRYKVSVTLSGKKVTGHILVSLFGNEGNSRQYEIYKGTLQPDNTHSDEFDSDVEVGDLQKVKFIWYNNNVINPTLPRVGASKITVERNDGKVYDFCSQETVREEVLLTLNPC
Nature of the test: Inhibition of porcine pancreatic lipase assessed as p-NPB substrate hydrolysis at 100 uM after 15 mins by microplate reader.

The structures appear in SMILES notation.

On to `COCc1ccc(C=O)n1C(C)C(=O)OC` (configuration not stated), for which the inhibition amounted to 40%.

As for `O=Cc1ccc2n1C(Cc1ccc(O)cc1)C(=O)OC2` (configuration not stated), the inhibition was determined as 70%.
